Numbers after ± are expanded uncertainties.
How the values were obtained:
[1] = refractive index (Na D-line) (dimensionless); settings: 298.15 K; 101.33 kPa; Liquid; Standard Abbe refractometry
[2] = 101.33 kPa, Liquid, Vibrating tube method

Structure (SMILES): CCCCn1cc[n+](C)c1.F[P-](F)(F)(F)(F)F [1-butyl-3-methylimidazolium hexafluorophosphate]
- refractive index [1]: 1.4106 ± 0.0005
- mass density ([2]; 303.15 K): 1361.3 ± 1.7 kg/m3
- mass density ([2]; 313.15 K): 1353 ± 1.6 kg/m3
- mass density ([2]; 323.15 K): 1344.8 ± 1.6 kg/m3
- mass density ([2]; 333.15 K): 1336.7 ± 1.6 kg/m3
- mass density ([2]; 343.15 K): 1328.5 ± 1.6 kg/m3
- mass density ([2]; 353.15 K): 1320.5 ± 1.6 kg/m3
- mass density ([2]; 363.15 K): 1312.4 ± 1.5 kg/m3

Structure (SMILES): CCOS(=O)(=O)[O-].CCn1cc[n+](C)c1 [1-ethyl-3-methylimidazolium ethyl sulfate]
- refractive index [1]: 1.4106 ± 0.0005
- mass density ([2]; 303.15 K): 1233.7 ± 1.4 kg/m3
- mass density ([2]; 313.15 K): 1226.9 ± 1.3 kg/m3
- mass density ([2]; 323.15 K): 1220.2 ± 1.3 kg/m3
- mass density ([2]; 333.15 K): 1213.6 ± 1.3 kg/m3
- mass density ([2]; 343.15 K): 1207 ± 1.3 kg/m3
- mass density ([2]; 353.15 K): 1200.4 ± 1.3 kg/m3
- mass density ([2]; 363.15 K): 1193.9 ± 1.3 kg/m3
